Reference: patent publication US20210128520A1, “NEUROPROTECTIVE ISOFLAVONE COMPOSITIONS AND METHODS” (UNM Rainforest Innovations, priority 2017, published 2021)
Entries after “also recorded” stand apart in the source; their conditions may differ.

How the values were obtained:
[1] = system: primary cultured cortical neurons; test: OGD/RO-induced cell death in primary cultured cortical neurons, LDH release assay; format: cell-based, rat; conditions: 2.5 μM of each isoflavone, pre-treatment, 4 h OGD + 20 h RO
Description: Primary cultured cortical neurons were isolated from embryonic Sprague-Dawley rats (E17). After digested by 0.25% trypsin (Invitrogen Corp., Carlsbad, Calif.), cells were collected and suspended in Dulbecco's modified eagle medium (DMEM) containing 10% horse serum, 1% L-glutamine and antibiotic mixture. The resulting single cell suspensions were seeded on 24-well or 6-well plates pre-treated with poly-D-lysine (Sigma-Aldrich, St. Louis, Mo.). After seeded for four hours, medium was replaced with neurobasal medium containing 2% B27, 1% L-glutamine and antibiotics mixture and cell culture was maintained at 37° C. and 5% CO2.
Both oxygen-glucose deprivation plus reoxygenation (OGD/RO) and excitotoxicity experiments were conducted. In OGD/RO experiments, primary cultured neurons were exposed to neurobasal medium without glucose and incubated in a hypoxia chamber (Billups-Rothenberg, Inc., San Diego, Calif.) perfused with a mixed gas containing 95% N2 and 5% CO2 until medium oxygen concentration reached 0.1%, which was monitored with a PA-10A paramagnetic 02 analyzer (Sable Systems International, North Las Vegas, Nev.). After cells were exposed to OGD at 37° C. for four hours, the medium was replaced with normal glucose-containing medium and the plates were put into normal culture condition for 20 hours for reoxygenation. In excitotoxicity experiments, primary cultured neurons were treated with L-glutamate (8 mM, Sigma-Aldrich, St. Louis, Mo.) for six hours. […]
LDH release assay was performed for detecting cell death with Cytotoxicity Detection Kit (Invitrogen Corp., Carlsbad, Calif.). In brief, culture medium was collected and incubated with the reaction mixture for 30 minutes at room temperature (24° C.). […] The optical density of the solution was measured at 490 nm on a microplate reader (Model 3350, Bio-Rad Laboratories, Inc., Hercules, Calif.). The cell death rate was calculated by using the formula: Cell death rate (%)=(Experimental absorbance value−culture medium absorbance value)/(Triton-X 100-treated absorbance value−culture medium absorbance value)×100%.

[2] = system: rat MCAO ischemia-reperfusion model; test: MCAO cerebral ischemia-reperfusion model, infarct volume (TTC) and neurology score; format: in vivo; conditions: for infarct volume in comparison with vehicle group: 20 μmol/kg i.p., single isoflavone; for infarct volume in comparison with vehicle group / infarct volume: 1.5 h MCAO + 22.5 h reperfusion; for infarct volume: 60 μmol/kg i.p. 30 min before MCAO, vehicle 27.93%±7.1%; for neurological function (neurological deficit score) versus vehicle group: 60 μmol/kg i.p.
From the text: Male adult Sprague-Daweley rats (250 g to 270 g) were obtained from Laboratorial Animal Unit, the University of Hong Kong (HKU) and University of New Mexico (UNM). All animal experiments were approved and regulated by the Committee on the Use of Live Animals in Teaching and Research, HKU and the Laboratory Animal Care and Use Committee, UNM. All efforts were made to minimize animal suffering and to reduce the number of animals used.
Rats were subjected to MCAO to induce cerebral ischemia-reperfusion as previously described (Shen et al., 2006. J Neurochem 96(4):1078-1089). Briefly, rats were anaesthetized by inhalation of 5% isoflurane and maintained with 2% isoflurane in a mixture of 70% N2O and 30% 02. After vessels isolation, a 3/0 monofilament nylon suture (Johnson & Johnson Health Care Systems, Inc., Piscataway, N.J.) was inserted into the external carotid artery and advanced into the internal carotid artery and anterior cerebral artery to occlude the middle cerebral artery. After occlusion for 1.5 hours, the suture was removed to induce reperfusion and maintained for 22.5 hours. After operation, rats were transferred to intensive care incubator in which the temperature was kept at 37° C. until animals woke up completely.
Isoflavones (C, F, and D) were dissolved in dimethyl sulfoxide (DMSO) and diluted with peanut oil to the indicated working solution and intraperitoneally (i.p.) injected to rats 30 minutes before suture insertion for MCAO. The same volume of DMSO and peanut oil were used as vehicle control. In parallel experiments, for mechanistic study, ER antagonist ICI 182780 or PI3K inhibitor LY-294002 was intracerebroventricularly (i.c.v.) injected into the rat lateral ventricle 60 minutes before ischemia onset. Briefly, after anaesthetization, rat was placed on a stereotaxic apparatus and fixed well. A 22-gauge, 12 mm stainless-steel guide cannula was inserted in the left lateral ventricle of the brain. The needle was inserted 4.5 mm deep, 1.5 mm lateral to sagiture and 0.8 mm posterior to bregma to reach the lateral ventricle. Then, ICI 182780 dissolved in DMSO (1 μM) or LY-294002 (10 mM) was slowly injected into lateral ventricle and the needle was kept for at least 30 seconds before removal. The same volume of DMSO was used as a negative control.
After 24 hours of reperfusion, rat brains were isolated and sliced into coronal sections followed by staining with 2,3,5-triphenyltetrazolium chloride (TTC, Sigma-Aldrich, St. Louis, Mo.) at 37° C. for 20 minutes. The ischemic area was evaluated by calculating the hemispheric lesion area with ImageJ software (ImageJ-1.38x; Schneider et al., 2012. Nature methods 9(7):671-675), the relative infarct volume percentage (RIVP) was calculated as RIVP=IVA/TA×100%, IVA was the total infract area of five coronal sections, TA was the total area of five sections.
Neurological function was determined by 9-scale methods containing dysfunctional paw test, postural reflex test and circling test according to a previous report (Bederson et al., 1986. Stroke 17(3):472-476). Each score was summed and represented as a single overall neurological score (0 to 8).

[3] = AR extract orally administrated to rats; cited from earlier work

SMILES: COc1ccc(-c2coc3cc(O)ccc3c2=O)cc1 [F, formononetin]
- reduction in the rate of cell death as compared to vehicle control, OGD/RO [1]: 2%
- infarct volume in comparison with vehicle group [2]: no significant effect
- infarct volume [2]: 10.76±4.21%
- fraction metabolized into D and its conjugates [3]: about 50%

SMILES: O=c1c(-c2ccc(O)cc2)coc2cc(O)ccc12 [D, daidzein]
- reduction in the rate of cell death as compared to vehicle control, OGD/RO [1]: 2%
- infarct volume in comparison with vehicle group [2]: no statistical difference
- infarct volume in comparison with vehicle group ([2]; listed as daidzein): no significant effect
- neurological function (neurological deficit score) versus vehicle group [2]: much improved neurological function
- infarct volume [2]: 13.84±0.95%

SMILES: COc1ccc(-c2coc3cc(O)ccc3c2=O)cc1O [C, calycosin]
- reduction in the rate of cell death as compared to vehicle control, OGD/RO [1]: 2%
- infarct volume in comparison with vehicle group [2]: no statistical difference; also recorded: no significant effect
- neurological function (neurological deficit score) versus vehicle group [2]: much improved neurological function
- infarct volume [2]: 10.99±6.07%
- effect of ICI 182780 co-treatment on neuroprotective effect on infarct volume ([2]; ICI 182780 i.c.v. 1 h before ischemia, isoflavone i.p. 30 min before ischemia): partially blocked
